Experimental data published in paper PMC6906431, “Selective small molecule PARG inhibitor causes replication fork stalling and cancer cell death” (Nature Communications, 2019).

System: MDA-MB-231 cells with scrambled shRNA (control)
Assay: Cellular PARylation, anti-PAR immunoblot
Assay type: cell-based, human
Method: Fig. 6 Selective inhibition of PARG by xanthine derivative JA2131. a Clonogenic survival assays of PC3, MDA-MB-231, and MCF-7 cells treated with PARGi. Cells were treated with either DMSO or 10 µM JA2131 for 2 h, irradiated with 3 Gy (MDA-MB-231 and MCF-7), 7 Gy (PC3) IR and grown for ~2 weeks, then colonies were fixed with methanol and stained with crystal violet. The results of three independent experiments are shown. Error bars = the standard error of the mean (SEM). b dose-response of JA2131 in MDA-MB-231 cells with and without IR. Cells were treated with designated concentrations of JA2131 for 2 h and then either left untreated or exposed to 3 Gy IR and allowed to recover for 1 h before lysis. Total protein was immunoblotted with anti-PAR antibody (upper panel), stripped and reprobed with anti-PCNA as a loading control. c MDA-MB-231 cells with stable scrambled shRNA (WT) or stable PARG shRNA, knockdown (KD), were treated with 5 μM JA2131 for 2 h, lysed and then total lysates were immunoblotted for anti-PAR (upper panel) followed by anti-PARG (upper middle panel), anti-PARP1 (lower middle panel) and anti-actin (bottom panel) antibody. […] Stable cells with scramble shRNA (control) and shPARG (PARG-KD) cells were treated with an increasing concentration of JA2131 for growth inhibitory IC50 determination. The data was normalized against 100% survival at the lowest inhibitor concentration. Error bars show the percent coefficient of variation. Equivalent concentrations of DMSO were used as a negative control. e The cytotoxicity of JA2131 along with PDD, Veliparib and Doxorubicin against MRC-5 cells. Error bars show the percent coefficient of variation. f CETSA for in-cell JA2131 target engagement. Normalized anti-PARG western blot intensities of three independent experiments were fitted as above and the estimated aggregation temperature (Tagg) is shown in the tabulated insert. Source Data are provided as a Source Data file.
Thus, dose-dependent JA2131-induced cellular PARylation with and without IR was investigated. For combined IR treatment, MDA-MB-231 cells were treated with JA2131 for 2 h, followed by […] X-ray and then allowed to recover for an hour before cellular extraction and western blotting analysis.
Using shRNA, next, we generated a stable MDA-MB-231 PARG knockdown (PARG-KD) cell-line (Supplementary Fig. 10). We compared PARGi JA2131-induced PARylation in PARG-KD and control cells. We reasoned that PARG-KD cells would show a reduced response to a selective PARGi as the stable PARG-KD cells would have to adopt a PARG-independent survival mechanism. MDA-MB-231 control cells and PARG-KD cells were treated with JA2131, then total cell lysates were subjected to immunoblotting with anti-PAR antibody, followed by immunodetection for anti-PARG, PARP1 and Actin antibody (Fig. 6c). […] Dose-response curves comparing control and PARG-KD cells further validate the selective action of JA2131 on control cells expressing PARG, but not on the PARG-KD cells (Supplementary Fig. 12).
Cells were grown in 6-well plates and 10 cm dishes, treated with PARGi for 2 h, irradiated and recovered for 1 h before harvesting. Cells were irradiated, ranging from 1 to 10 Gy using RAD SOURCE, RS-2000, Biological System, RadSource.com. Cells were washed with phosphate buffer and saline (PBS) and lysed with buffer containing 50 mM Hepes, pH 7.5, 1% (vol/vol) igepal-C630, 1 mg/ml bacitracin, 1 mM EDTA, 10 mM NaF, 1 mM sodium orthovanadate, 10% (vol/vol) glycerol, 50 mM NaCl, 1 mM PMSF, and Protease Inhibitor Cocktail Set III (EMD Millipore). The detergent-soluble fraction was used for western blotting. Cell fractionation was carried out using the Subcellular Protein Fractionation Kit, (#78840, ThermoFisher) according to the manufacturer’s instruction. Primary antibodies were purchased from the following sources; Actin, GAPDH, γH2AX and Histone-H3 was from Cell Signaling Technology. H2AX and LAMB1 were from Invitrogen/ThermoFisher. […]

Structure (SMILES): Cn1c(=S)c2[nH]c(SCCN3CCOCC3)nc2n(C)c1=O [JA2131]
- anti-PAR western blot band, Normalized (5 μM JA2131 2 h, Ci-DMSO = 1): 6.313
- anti-PAR western blot band, Intensity inversion (5 μM JA2131 2 h, ImageJ): 0.006671
- anti-PAR western blot band, Neg. substracted (5 μM JA2131 2 h, ImageJ): 0.001364
- anti-PAR western blot band, mean int. (5 μM JA2131 2 h, ImageJ): 149.9
- PAR accumulation after treatment (5 μM, 2 h): a measurable increase in PAR
- cellular PARylation (JA2131 2 h combined with IR, 1 h recovery): massive increase in cellular PARylation at 100 nM
- cellular PARylation (JA2131 alone, 2 h): dose-dependent increase in cellular PARylation between 1 μM and 5 μM doses
